Experimental data taken from ChEMBL document CHEMBL6078668, “Synthesis and biological evaluation of lappaconitine analogues as potential anti-neuroinflammatory agents by side chain modification and scaffold hopping strategy” (Bioorg Med Chem, 2025).
pIC50: −log10 of the molar value. The source made the active and inactive calls. The rule behind the calls is not given here.

Columns and labels:
[1] = Cytotoxicity against C57BL/6 mouse BV-2 cells assessed as survival rate at 30 uM incubated for 24 hrs by MTT assay relative to control; assay type: toxicity, cell-based; details: read-out: Survival
BV-2 [2] = assay: Anti-neuroinflammatory activity against LPS-stimulated C57BL/6 mouse BV-2 cells assessed as inhibition of NO release at 30 uM preincubated with compound for 4 hrs followed by LPS addition and measured after 24 hrs by Griess reagent based assay relative to control; assay type: functional; details: C57BL/6, BV-2, time 28 hrs
BV-2 [3] = assay: Anti-neuroinflammatory activity against LPS-stimulated C57BL/6 mouse BV-2 cells assessed as inhibition of NO release preincubated with compound for 4 hrs followed by LPS addition and measured after 24 hrs by Griess reagent based assay; assay type: functional, cell-based; details: C57BL/6, BV-2
BV-2 [4] = assay: Cytotoxicity against C57BL/6 mouse BV-2 cells assessed as effect on cell viability at 30 to 60 uM incubated for 24 hrs by MTT assay; assay type: toxicity, cell-based; details: bv-2, 24 h, dose 30-60 µM
BV-2 [5] = assay: Anti-neuroinflammatory activity against LPS-stimulated C57BL/6 mouse BV-2 cells assessed as inhibition of NO release at 30 to 60 uM preincubated with compound for 4 hrs followed by LPS addition and measured after 24 hrs by Griess reagent based assay; assay type: functional, cell-based; details: dose 30-60 µM, time 28.0 hrs
BV-2 [6] = assay: Anti-neuroinflammatory activity against LPS-stimulated C57BL/6 mouse BV-2 cells assessed as decrease in TNF-alpha expression level preincubated with compound for 4 hrs followed by LPS addition and measured after 24 hrs by ELISA; assay type: functional, cell-based; details: dose 30-60 µM, time 28.0 hrs
BV-2 [7] = assay: Anti-neuroinflammatory activity against LPS-stimulated C57BL/6 mouse BV-2 cells assessed as decrease in IL-6 expression level preincubated with compound for 4 hrs followed by LPS addition and measured after 24 hrs by ELISA; assay type: functional, cell-based; details: dose 30-60 µM, time 28.0 hrs
BV-2 [8] = assay: Anti-neuroinflammatory activity against LPS-stimulated C57BL/6 mouse BV-2 cells assessed as decrease in IL-1beta expression level preincubated with compound for 4 hrs followed by LPS addition and measured after 24 hrs by ELISA; assay type: functional, cell-based; details: dose 30-60 µM, time 28.0 hrs
BV-2 [9] = assay: Anti-neuroinflammatory activity against LPS-stimulated C57BL/6 mouse BV-2 cells assessed as decrease in TNF-alpha mRNA expression level at 30 to 60 uM preincubated with compound for 4 hrs followed by LPS addition and measured after 24 hrs by RT-PCR analysis; assay type: functional, cell-based; details: dose 30-60 µM, time 28.0 hrs
BV-2 [10] = assay: Anti-neuroinflammatory activity against LPS-stimulated C57BL/6 mouse BV-2 cells assessed as decrease in IL-6 mRNA expression level at 30 to 60 uM preincubated with compound for 4 hrs followed by LPS addition and measured after 24 hrs by RT-PCR analysis; assay type: functional, cell-based; details: dose 30-60 µM, time 28.0 hrs
BV-2 [11] = assay: Anti-neuroinflammatory activity against LPS-stimulated C57BL/6 mouse BV-2 cells assessed as decrease in IL-1beta mRNA expression level at 30 to 60 uM preincubated with compound for 4 hrs followed by LPS addition and measured after 24 hrs by RT-PCR analysis; assay type: functional, cell-based; details: dose 30-60 µM, time 28.0 hrs
BV-2 [12] = assay: Anti-neuroinflammatory activity against LPS-stimulated C57BL/6 mouse BV-2 cells assessed as downregulation of COX-2 mRNA expression level at 30 to 60 uM preincubated with compound for 4 hrs followed by LPS addition and measured after 24 hrs by RT-PCR analysis; assay type: functional, cell-based; details: dose 30-60 µM, time 28.0 hrs
BV-2 [13] = assay: Anti-neuroinflammatory activity against LPS-stimulated C57BL/6 mouse BV-2 cells assessed as downregulation of iNOS mRNA expression level at 30 to 60 uM preincubated with compound for 4 hrs followed by LPS addition and measured after 24 hrs by RT-PCR analysis; assay type: functional, cell-based; details: dose 30-60 µM, time 28.0 hrs
BV-2 [14] = assay: Anti-neuroinflammatory activity against LPS-stimulated C57BL/6 mouse BV-2 cells assessed as downregulation of COX-2 protein expression level by Western blot analysis; assay type: functional, cell-based; details: dose 30-60 µM
BV-2 [15] = assay: Anti-neuroinflammatory activity against LPS-stimulated C57BL/6 mouse BV-2 cells assessed as downregulation of iNOS protein expression level by Western blot analysis; assay type: functional, cell-based; details: dose 30-60 µM
BV-2 [16] = assay: Downregulation of TLR4 protein expression in C57BL/6 mouse BV-2 cells at 30 to 60 uM preincubated with compound for 4 hrs followed by LPS stimulation by Western blot analysis; assay type: functional, cell-based; details: dose 30-60 µM
BV-2 [17] = assay: Downregulation of MyD88 protein expression in C57BL/6 mouse BV-2 cells at 30 to 60 uM preincubated with compound for 4 hrs followed by LPS stimulation by Western blot analysis; assay type: functional, cell-based; details: dose 30-60 µM
BV-2 [18] = assay: Inhibition of NFkappaB p65 nuclear translocation in LPS-stimulated C57BL/6 mouse BV-2 cells at 30 to 60 uM preincubated with compound for 4 hrs followed by LPS stimulation by Western blot analysis; assay type: cell-based; details: dose 30-60 µM
BV-2 [19] = assay: Inhibition of IkappaB phosphorylation in LPS-stimulated C57BL/6 mouse BV-2 cells at 30 to 60 uM preincubated with compound for 4 hrs followed by LPS stimulation by Western blot analysis; assay type: cell-based; details: dose 30-60 µM
[20] = Acute toxicity in Kunming mouse assessed as animal death at 325 to 928 mg/kg, po measured after 14 days; assay type: organism-based; details: in vivo, 336 h, dose 325-928 mg/kg, time 14 day
[21] = Acute toxicity in Kunming mouse assessed as animal death at 250 mg/kg, po measured after 14 days; assay type: organism-based; details: in vivo, 336 h, time 14 day
[22] = Acute toxicity in po dosed Kunming mouse assessed as lethal dose measured after 14 days; assay type: organism-based; details: in vivo, time 14 day
[23] = Acute toxicity in Kunming mouse assessed as histological abnormalities in heart at 250 mg/kg, po measured after 14 days by H and E staining based analysis; assay type: organism-based; details: in vivo, 336 h, time 14 day
[24] = Acute toxicity in Kunming mouse assessed as histological abnormalities in liver at 250 mg/kg, po measured after 14 days by H and E staining based analysis; assay type: organism-based; details: in vivo, 336 h, time 14 day
[25] = Acute toxicity in Kunming mouse assessed as histological abnormalities in spleen at 250 mg/kg, po measured after 14 days by H and E staining based analysis; assay type: organism-based; details: in vivo, 336 h, time 14 day
[26] = Acute toxicity in Kunming mouse assessed as histological abnormalities in lung at 250 mg/kg, po measured after 14 days by H and E staining based analysis; assay type: organism-based; details: in vivo, 336 h, time 14 day
[27] = Acute toxicity in Kunming mouse assessed as histological abnormalities in kidney at 250 mg/kg, po measured after 14 days by H and E staining based analysis; assay type: organism-based; details: in vivo, 336 h, time 14 day

With `CCN1C[C@]2(OC(=O)c3ccccc3NC(=O)S(=O)(=O)c3cccc(F)c3)CC[C@H](OC)[C@]34C1[C@@H](C[C@H]23)[C@@]1(O)C[C@H](OC)[C@H]2C[C@@H]4[C@]1(O)[C@H]2OC` the viability at 24 h, 30 µM [1] was 107%, the inhibition at 30 µM (BV-2 [2]) was 85.8% and the pIC50 (BV-2 [3]) was 5.00. The Activity (BV-2 [4]) was “Non-toxic”, the Activity (BV-2 [5]) was “Active” and the Activity (BV-2 [6]) was “Dose-dependent-effect”. For the same compound, the Activity (BV-2 [7]) was “Dose-dependent-effect”, the Activity (BV-2 [8]) was “Dose-dependent-effect” and the Activity (BV-2 [9]) was “Active”. For the same compound, the Activity (BV-2 [10]) was “Active”, the Activity (BV-2 [11]) was “Active” and the Activity (BV-2 [12]) was “Active”. The Activity (BV-2 [13]) was “Active”, the Activity (BV-2 [14]) was “Dose-dependent-effect” and the Activity (BV-2 [15]) was “Dose-dependent-effect”. The Activity (BV-2 [16]) was “Active”, the Activity (BV-2 [17]) was “Active” and the inhibition (BV-2 [18]) was “Active”. The inhibition (BV-2 [19]) was “Active”, the Activity [20] was “Toxic” and the Activity [21] was “Non-toxic”. The LD50 at 336 h [22] was 508 mg/kg, the Activity [23] was “Non-toxic” and the Activity [24] was “Non-toxic”. The Activity [25] was “Non-toxic”, the Activity [26] was “Non-toxic” and the Activity [27] was “Non-toxic”.
